Source: ChEMBL document CHEMBL5338745, “Factor XIa Inhibitors in Anticoagulation Therapy: Recent Advances and Perspectives” (J Med Chem, 2023)

Legend:
Coagulation factor XI [1] = target: T1, Coagulation factor XI (Homo sapiens, UniProt P03951); experiment: Inhibition of FXIa (unknown origin)
Plasma kallikrein = Plasma kallikrein (Homo sapiens, UniProt P03952)
[2] = Half life in mouse; type: ADME, organism-based; conditions: in vivo
[3] = Selectivity index, ratio IC50 for FXIa (unknown origin) to IC50 for FD (unknown origin)
Coagulation factor XI [4] = target: T1, Coagulation factor XI; experiment: Inhibition of FXIa (unknown origin) relative to control; conditions: concentration not given here
[5] = Metabolic stability in dog liver microsomes assessed as half life; type: ADME, Canis lupus familiaris, Microsome
[6] = Plasma protein binding in human at 10 pM incubated for 4 hrs by HPLC-MS/MS analysis; type: ADME, cell-free; conditions: read-out: PPB
[7] = Oral bioavailability in dog; type: ADME, organism-based, Canis lupus familiaris; conditions: in vivo
Plasma [8] = experiment: Anticoagulant activity in human plasma assessed as concentration required to double the activated partial thromboplastin time; type: functional
Plasma [9] = experiment: Anticoagulant activity in human plasma assessed as concentration required to double the prothrombin time; type: functional
Neutrophil elastase = target: T2, Neutrophil elastase (Homo sapiens, UniProt P08246); experiment: Inhibition of human Neutrophil elastase
T2 sequence (P08246 whole entry): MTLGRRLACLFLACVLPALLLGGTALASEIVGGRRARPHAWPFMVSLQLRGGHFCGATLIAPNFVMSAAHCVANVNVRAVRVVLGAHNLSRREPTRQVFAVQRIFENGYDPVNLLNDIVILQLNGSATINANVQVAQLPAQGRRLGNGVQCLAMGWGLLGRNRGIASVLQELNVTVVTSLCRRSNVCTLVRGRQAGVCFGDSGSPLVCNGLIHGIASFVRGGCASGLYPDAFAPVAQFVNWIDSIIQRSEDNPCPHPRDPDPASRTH

Cathepsin G = target: T3, Cathepsin G (Homo sapiens, UniProt P08311); experiment: Inhibition of human cathepsin G
T3 sequence (P08311 whole entry): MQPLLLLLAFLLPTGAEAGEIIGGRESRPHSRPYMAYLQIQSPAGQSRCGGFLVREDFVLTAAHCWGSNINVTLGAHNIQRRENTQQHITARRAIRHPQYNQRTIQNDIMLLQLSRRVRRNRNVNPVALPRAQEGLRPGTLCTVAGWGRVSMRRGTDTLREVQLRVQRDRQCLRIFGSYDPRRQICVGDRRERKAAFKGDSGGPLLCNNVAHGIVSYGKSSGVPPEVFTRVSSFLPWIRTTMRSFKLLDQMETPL

[10] = Half life in Sprague-Dawley rat at 5 to 10 mg/kg, po by LC-MS/MS analysis; type: ADME, organism-based; conditions: in vivo, dose 5-10 mg/kg
[11] = Clearance in Sprague-Dawley rat at 5 to 10 mg/kg, po by LC-MS/MS analysis; type: ADME, organism-based; conditions: in vivo, dose 5-10 mg/kg
[12] = Oral bioavailability in Sprague-Dawley rat at 5 to 10 mg/kg by LC-MS/MS analysis; type: ADME, organism-based; conditions: in vivo, dose 5-10 mg/kg
Plasma [13] = experiment: Anticoagulant activity in human plasma assessed as concentration required to 1.5 times activation of partial thromboplastin time; type: functional
[14] = Clearance in rat at 1 mg/kg, iv; type: ADME, organism-based; conditions: in vivo
[15] = Oral bioavailability in rat at 1.5 mg/kg; type: ADME, organism-based; conditions: in vivo
[16] = Half life in cynomolgus monkey at 1 mg/kg, iv; type: ADME, organism-based, Macaca fascicularis; conditions: in vivo
[17] = Clearance in cynomolgus monkey at 1 mg/kg, iv; type: ADME, organism-based, Macaca fascicularis; conditions: in vivo
[18] = Oral bioavailability in cynomolgus monkey at 10 mg/kg, […]; type: ADME, organism-based, Macaca fascicularis; conditions: in vivo
[19] = Half life in Sprague-Dawley rat at 0.5 mg/kg, iv; type: ADME, organism-based; conditions: in vivo
[20] = Clearance in Sprague-Dawley rat at 0.5 mg/kg, iv; type: ADME, organism-based; conditions: in vivo
[21] = Oral bioavailability in Sprague-Dawley rat at 3 mg/kg; type: ADME, organism-based; conditions: in vivo
[22] = Half life in Sprague-Dawley rat at 1 mg/kg, iv by LC-MS/MS analysis; type: ADME, organism-based; conditions: in vivo
[23] = Oral bioavailability in Sprague-Dawley rat at 2 mg/kg by LC-MS/MS analysis; type: ADME, organism-based; conditions: in vivo
[24] = Half life in rat; type: ADME; conditions: in vivo
[25] = Clearance in rat; type: ADME; conditions: in vivo
[26] = Solubility of the compound; type: physicochemical

Chain of Plasma kallikrein (P03952 20-390 limits assumed): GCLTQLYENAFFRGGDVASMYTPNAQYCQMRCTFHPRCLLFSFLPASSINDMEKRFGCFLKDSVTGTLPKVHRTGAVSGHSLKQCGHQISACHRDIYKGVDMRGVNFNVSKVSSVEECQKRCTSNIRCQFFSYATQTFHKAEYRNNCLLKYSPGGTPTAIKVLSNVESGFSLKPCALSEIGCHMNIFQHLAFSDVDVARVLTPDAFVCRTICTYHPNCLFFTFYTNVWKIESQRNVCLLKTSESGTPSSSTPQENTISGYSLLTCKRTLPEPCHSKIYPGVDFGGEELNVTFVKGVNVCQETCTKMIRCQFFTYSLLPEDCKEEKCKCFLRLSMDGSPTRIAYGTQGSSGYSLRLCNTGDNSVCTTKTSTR
Chain of Plasma kallikrein (P03952 391-638 limits assumed): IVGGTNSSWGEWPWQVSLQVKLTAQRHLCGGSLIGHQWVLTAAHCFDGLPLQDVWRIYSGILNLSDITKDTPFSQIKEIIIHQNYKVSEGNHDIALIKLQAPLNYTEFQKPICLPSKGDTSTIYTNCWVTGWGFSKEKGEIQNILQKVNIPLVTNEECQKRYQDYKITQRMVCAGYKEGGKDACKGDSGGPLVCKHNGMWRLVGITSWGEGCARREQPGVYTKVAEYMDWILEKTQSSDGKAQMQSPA
T1 sequence (P03951 19-387 limits assumed): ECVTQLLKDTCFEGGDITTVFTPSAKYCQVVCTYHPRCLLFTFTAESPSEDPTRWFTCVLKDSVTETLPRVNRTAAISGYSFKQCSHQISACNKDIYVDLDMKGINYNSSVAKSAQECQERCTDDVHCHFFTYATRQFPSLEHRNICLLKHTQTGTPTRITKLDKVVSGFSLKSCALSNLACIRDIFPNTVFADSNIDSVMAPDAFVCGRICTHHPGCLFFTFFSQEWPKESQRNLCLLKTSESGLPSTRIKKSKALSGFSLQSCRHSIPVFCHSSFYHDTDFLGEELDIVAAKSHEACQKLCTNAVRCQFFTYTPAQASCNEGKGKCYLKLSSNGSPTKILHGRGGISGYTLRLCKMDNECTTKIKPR
T1 sequence (P03951 388-625 limits assumed): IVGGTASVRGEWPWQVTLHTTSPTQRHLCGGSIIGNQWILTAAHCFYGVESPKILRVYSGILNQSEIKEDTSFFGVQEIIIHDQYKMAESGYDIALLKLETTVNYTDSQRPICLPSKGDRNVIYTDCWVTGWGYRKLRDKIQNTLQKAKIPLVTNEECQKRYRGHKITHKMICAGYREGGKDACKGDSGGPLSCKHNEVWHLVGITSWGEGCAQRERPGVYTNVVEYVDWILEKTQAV

SMILES: Nc1ccc(-c2cnc([C@H](CC3CC3)c3ccc(-c4cc(Cl)ccc4-n4cnnn4)c[n+]3[O-])[nH]2)c(Cl)n1
- IC50 (Coagulation factor XI [1]): 0.32 nM
- IC50 (Plasma kallikrein): 80 nM

SMILES: CC(C)c1cc(CCN2CCc3cccc(C(=O)O)c32)cc(-c2ccc3c(c2)[C@H](N)CO3)c1
- half-life [2]: 540 min
- Ratio IC50 [3]: 700

SMILES: Cc1ccc(C(=O)Nc2ccc(CP(=O)(O)O)cc2CP(=O)(O)O)cc1NC(=O)c1cccc(NC(=O)Nc2cccc(C(=O)Nc3cc(C(=O)Nc4ccc(CP(=O)(O)O)cc4CP(=O)(O)O)ccc3C)c2)c1
- inhibition (Coagulation factor XI [4]): 68%

SMILES: CC[C@@H](NC(=O)N1C(=O)[C@H](Cc2ccnc(N)c2)[C@H]1C(=O)N(C)c1nccn1C)c1ccccc1
- IC50 (Coagulation factor XI [1]): < 10 nM
- half-life [5]: 121 min
- fraction unbound at 4 h, 1e-05 µM [6]: 0.5
- bioavailability [7]: > 33%

SMILES: CC(C)c1cc(COc2ccccc2CC(=O)O)cc(-c2ccc3c(c2)[C@H](N)CO3)c1
- EC (Plasma [8]): 2.2 µM
- EC (Plasma [9]): 9.9 µM

SMILES: Nc1ccc(-c2[nH]c(Cn3c4c(c(-c5cc(Cl)ccc5-n5cnnn5)cc3=O)C(=O)CC4)nc2F)c(F)n1
- IC50 (Coagulation factor XI [1]): 0.32 nM

SMILES: O=C(O)c1ccc(NC(=O)[C@H](Cc2ccccc2)N2CCC(c3cc(Cl)ccc3-n3cc(Cl)nn3)=CC2=O)cc1
- IC50 (Coagulation factor XI [1]): 1.73 nM

SMILES: Nc1ccc(-c2nc([C@H]3CCc4cc(-c5cc(Cl)ccc5-n5cnnn5)cc(=O)n43)c(F)[nH]2)c(F)n1 [ONO-7684]
- Ki (Coagulation factor XI [1]): 2 nM

SMILES: O=C(Nc1ccc(C(=O)Nc2ccc(C(=O)Nc3ccc(OS(=O)(=O)O)c4cc(OS(=O)(=O)O)cc(OS(=O)(=O)O)c34)cc2)cc1)Nc1ccc(C(=O)Nc2ccc(C(=O)Nc3ccc(OS(=O)(=O)O)c4cc(OS(=O)(=O)O)cc(OS(=O)(=O)O)c34)cc2)cc1
- IC50 (Coagulation factor XI [1]): 4600 nM
- IC50 (Neutrophil elastase): 220 nM
- IC50 (Cathepsin G): 570 nM

SMILES: O=c1cc(-c2c(-n3cnnn3)ccc(Cl)c2F)cc2n1[C@H](c1ccc(-c3ccnc(CO)c3F)[nH]1)CC2
- IC50 (Coagulation factor XI [1]): 1.8 nM
- IC50 (Plasma kallikrein): 13 nM
- half-life [10]: 195 min
- CL/F [11]: 19.6 mL/min/kg
- bioavailability [12]: 53.4%

SMILES: O=C(OC[C@H]1O[C@@H](OC(=O)c2cc(OS(=O)(=O)O)cc(OS(=O)(=O)O)c2)[C@H](OC(=O)c2cc(OS(=O)(=O)O)cc(OS(=O)(=O)O)c2)[C@@H](OC(=O)c2cc(OS(=O)(=O)O)cc(OS(=O)(=O)O)c2)[C@@H]1OC(=O)c1cc(OS(=O)(=O)O)cc(OS(=O)(=O)O)c1)c1cc(OS(=O)(=O)O)cc(OS(=O)(=O)O)c1
- IC50 (Coagulation factor XI [1]): 1400 nM

SMILES: O=C(O)c1ccc(NC(=O)[C@H](CC2CC2)c2ccc(-c3c(C(F)F)ccc(Cl)c3F)c[n+]2[O-])cc1 (mixture of isomers)
- EC (Plasma [13]): 0.61 µM
- clearance [14]: 1.9 mL/min/kg
- bioavailability [15]: 89%

SMILES: [2H]C([2H])([2H])n1ncc2c1-c1ccnc(c1)[C@@H](c1coc(-c3cc(Cl)ccc3-n3cc(Cl)nn3)cc1=O)CCC[C@@H](C)C(=O)N2
- IC50 (Coagulation factor XI [1]): 6.1 nM
- EC (Plasma [8]): 2.7 µM
- half-life [16]: 63 min
- clearance [17]: 8.6 mL/min/kg
- bioavailability [18]: 36.8%

SMILES: O=C(O)c1ccc(NC(=O)[C@H](CC2=CC=CCC2)n2ccc(-c3cc(Cl)ccc3-n3cnnn3)cc2=O)cc1
- Ki (Coagulation factor XI [1]): 6 nM

SMILES: C[C@@H]1CCC[C@H](c2ccc(-c3cc(Cl)ccc3-n3cc(Cl)nn3)oc2=O)c2cc(ccn2)-c2c(cnn2C(F)F)NC1=O
- IC50 (Coagulation factor XI [1]): 3.9 nM
- half-life [19]: 60 min
- EC (Plasma [8]): 0.87 µM
- clearance [20]: 5.65 mL/min/kg
- bioavailability [21]: 37.1%

SMILES: Nc1ccc(-c2nc(F)c([C@@H]3[C@H]4C[C@H]4c4cc(-c5cc(Cl)ccc5-n5cnnn5)cc(=O)n43)[nH]2)c(F)n1
- IC50 (Coagulation factor XI [1]): 3.3 nM
- half-life [22]: 96 min
- bioavailability [23]: 25.3%

SMILES: O=C(/C=C/c1cc(Cl)ccc1-n1cnnn1)N[C@@H](CC(=O)N1CCN(c2ccccc2)CC1)C(=O)Nc1ccc(C(=O)O)cc1
- IC50 (Coagulation factor XI [1]): 7.1 nM
- IC50 (Plasma kallikrein): > 14000 nM
- half-life [24]: 75.6 min
- clearance [25]: 9.2 mL/min/kg
- solubility [26]: > 5200 µg/mL
